Among the data in US20110230428A1, “CERTAIN KYNURENINE-3-MONOOXYGENASE INHIBITORS, PHARMACEUTICAL COMPOSITIONS, AND METHODS OF USE THEREOF” (priority 2008, published 2011) are inhibition values, retold here.

Structures can show the parent of a compound that is named as a salt.

In this test the target is T1, KMO mouse enzyme (Mus musculus, UniProt Q91WN4).
T1 construct: KMO enzyme prepared at Evotec from mouse liver (4-6 weeks old) via mitochondria isolation; from tissue; host or cells: mouse liver (4-6 weeks old), isolated mitochondria
T1 sequence (Q91WN4 whole entry): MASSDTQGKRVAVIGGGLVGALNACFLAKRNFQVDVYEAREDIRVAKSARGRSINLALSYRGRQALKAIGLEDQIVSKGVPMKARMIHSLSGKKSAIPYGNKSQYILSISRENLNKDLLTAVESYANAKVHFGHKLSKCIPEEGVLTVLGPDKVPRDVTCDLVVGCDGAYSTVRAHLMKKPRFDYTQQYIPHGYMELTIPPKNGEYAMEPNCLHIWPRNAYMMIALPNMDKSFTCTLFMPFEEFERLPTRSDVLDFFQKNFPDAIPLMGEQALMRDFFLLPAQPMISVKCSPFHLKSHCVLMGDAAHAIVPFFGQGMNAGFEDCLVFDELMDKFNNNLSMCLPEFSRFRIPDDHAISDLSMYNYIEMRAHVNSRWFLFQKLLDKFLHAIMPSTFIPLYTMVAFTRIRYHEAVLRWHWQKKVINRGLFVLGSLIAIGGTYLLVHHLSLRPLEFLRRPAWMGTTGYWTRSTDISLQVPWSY
Kind of test: KMO mouse enzyme assay: L-Kynurenine hydroxylation to 3OH-KYN by LC/MS. The test is classed as biochemical. The following applies: compound at 10 μM; KMO from mouse liver mitochondria; read-out: INH.Mouse @ 10 μM. The method, then: A method of monitoring L-Kynurenine (KYN) hydroxylation to form 3-Hydroxy-Kynurenine (3OH-KYN) by LC/MS is described. Product is quantified by multiple reaction monitoring (MRM method).
• Compound: Stock concentrations: 10 mM in 100% DMSO • Enzyme: KMO enzyme prepared at Evotec from mouse liver (4-6 weeks old) via mitochondria isolation as described in the literature • Substrate: L-Kynurenine (Sigma: Cat# K3750, stock concentration: 10 mM in 100 mM potassium phosphate buffer, pH 7.4)
• Buffer: 100 mM potassium phosphate, pH 7.4, 200 μM NADPH, 0.4 U/ml G6P-DH (Glucose 6-phosphate Dehydrogenase), 3 mM G6P (D-Glucose 6-phosphate) • Assay Volume: 40 μl • Plate Format: 384 well plate, transparent (Matrix) • Read-Out: product (3OH-KYN) quantification using product specific MRM • Reader: LC/MS/MS
• prepare serial dilution (factor 3) of compound in 100% DMSO (top concentration=10 mM, 100% DMSO) • [8 points: 10 mM; 3.33 mM; 1.11 mM; 0.37 mM; 0.12 mM; 0.04 mM; 0.0137 mM; 0.0045 mM, 0.0015 mM] • prepare […] solution of each compound concentration (top concentration 300 μM, 3% DMSO) in assay buffer • [concentrations: 300 μM; 100 μM; 33.3 μM; 11.1 μM; 3.70 μM; 1.23 μM; 0.41 μM; 0.137 μM] • prepare substrate (10 mM) at concentration of 1 mM in assay buffer • assay mix: 4 μl compound/well of each concentration+24 μl assaybuffer/well+8 μl KMO mouse enzyme+4 μl 1 mM substrate (final concentration=100 μM) • [final compound top concentration: 30 μM; 0.3% DMSO] • [final compound bottom concentration: 0.0137 μM; 0.3% DMSO] • positive control: 4 μl 50 μM FCE28833 in assay buffer, 0.5% DMSO [final assay concentration=5 μM]+24 μl assaybuffer/well+8 μl KMO mouse enzyme+4 μl 1 mM substrate [final concentration=100 μM] • negative control: 28 μl assay buffer/well+8 μl KMO mouse enzyme+4 μl 1 mM substrate [final concentration=100 μM] • incubate 40 min at RT • add 40 μl/well 10% trichloro acetic acid in water to stop the assay and precipitate protein • centrifuge plate for 3 min at 4000 rpm • product detection by LC/MS (injection of 20 μl/well, 2 fold overfill of the 10 μl sample loop) Data analysis: IC50's are calculated using automated fitting algorithm (A+Analysis).
Using procedures similar to those described herein, the following compounds were assayed for activity.
As to `CO/N=C(\CCC(=O)N(C)C)c1ccc(Cl)c(Cl)c1` [4-(3,4-Dichloro-phenyl)-4-methoxyimino-N,N-dimethyl-butyramide], the inhibition at 10 µM is 64.3%.
Then `CON=C(CCC(=O)OC[C@H](O)[C@H]1OC(=O)C(O)=C1O)c1ccc(Cl)c(Cl)c1` [4-(3,4-Dichloro-phenyl)-4-methoxyimino-butyric acid (S)-2-((R)-3,4-dihydroxy-5-oxo-2,5-dihydro-furan-2-yl)-2-hydroxy-ethyl ester], with 102%; and `CON=C(CCC(=O)Nc1ccccc1)c1ccc(Cl)c(Cl)c1` [4-(3,4-Dichloro-phenyl)-4-methoxyimino-N-phenyl-butyramide], with 103%.
Consider `CON=C(CCC(=O)Nc1cncnc1)c1ccc(Cl)c(Cl)c1` [4-(3,4-Dichloro-phenyl)-4-methoxyimino-N-pyrimidin-5-yl-butyramide], for which the inhibition at 10 µM worked out at 98.5%.
Then `CON=C(CCC(=O)Nc1nncs1)c1ccc(Cl)c(Cl)c1` [4-(3,4-Dichloro-phenyl)-4-methoxyimino-N-[1,3,4]thiadiazol-2-yl-butyramide], with 95.2%; and `COC(=O)CCC(=NOCCNC(=O)OC(C)(C)C)c1ccc(Cl)c(Cl)c1` [4-[2-tert-Butoxycarbonylamino-ethoxyimino]-4-(3,4-dichloro-phenyl)-butyric acid methyl ester], with 56.4%; and `CON=C(CCC(=O)NCC(C)O)c1ccc(Cl)c(Cl)c1` (stereo not shown) [4-(3,4-Dichloro-phenyl)-N-(2-hydroxy-propyl)-4-methoxyimino-butyramide], with 98.8%.
On to `CO/N=C(\CCC(=O)O)c1cc(Cl)cc(Cl)c1` [4-(3,5-Dichloro-phenyl)-4-methoxyimino-butyric acid], for which the inhibition at 10 µM worked out at 98.7%.
Then `CON=C(CCC(=O)NC1CCNC1)c1ccc(Cl)c(Cl)c1` (stereo not shown) [4-(3,4-Dichloro-phenyl)-4-methoxyimino-N-pyrrolidin-3-yl-butyramide], with 74.3%; and `CON=C(CCC(=O)Nc1c(C)ccnc1C)c1ccc(Cl)c(Cl)c1` [4-(3,4-Dichloro-phenyl)-N-(2,4-dimethyl-pyridin-3-yl)-4-methoxyimino-butyramide], with 85%.
Then `CON=C(CCC(=O)NCCN(C)C)c1ccc(Cl)c(Cl)c1` [{2-[4-(3,4-Dichloro-phenyl)-4-methoxyimino-butyrylamino]-ethyl}-dimethyl-ammonium trifluoroacetate], with 68%; and `CON=C(CCC(=O)Nc1ccc(C)nn1)c1ccc(Cl)c(Cl)c1` [4-(3,4-Dichloro-phenyl)-4-methoxyimino-N-(6-methyl-pyridazin-3-yl)-butyramide], with 90.2%.
`CON=C(CCC(=O)Nc1cnccn1)c1ccc(Cl)c(Cl)c1` [4-(3,4-Dichloro-phenyl)-4-methoxyimino-N-pyrazin-2-yl-butyramide]: the inhibition at 10 µM was 98%.
